In patent publication US5508385A, “Tripeptide derivatives containing pyroglutamic acid residue” (Nitto Boseki Co., Ltd., priority 1990, dated 1996):
pIC50: −log10 of the molar value. Where a name gives a salt, the structure may show the parent alone. Read-outs that look alike come from different tables or passages of the source. Where a SMILES comes first, the peptide text is derived from it. [ ]: non-standard residue; d: D form. pGlu = O=C1CC[C@@H](C(=O)O)N1

How the values were obtained:
Format in all cases: biochemical
[1] = molecular target: T1, human factor Xa (Homo sapiens, UniProt P00742); experiment: Inhibitory activity against factor Xa (synthetic substrate PS-2000); settings: Table 3; substrate PS-2000, pH 8.5, 37° C.
T1 construct: purchased Boehringer Mannheim
T1 sequence (P00742 235-488 limits assumed): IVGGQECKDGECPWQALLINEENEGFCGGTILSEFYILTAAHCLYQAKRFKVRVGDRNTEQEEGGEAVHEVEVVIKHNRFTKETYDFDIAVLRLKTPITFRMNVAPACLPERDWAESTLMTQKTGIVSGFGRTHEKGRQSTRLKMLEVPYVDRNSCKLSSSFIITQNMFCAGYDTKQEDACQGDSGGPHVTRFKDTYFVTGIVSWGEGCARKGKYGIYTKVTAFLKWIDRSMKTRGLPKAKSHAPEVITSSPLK
T1 sequence (P00742 41-179 partner limits assumed): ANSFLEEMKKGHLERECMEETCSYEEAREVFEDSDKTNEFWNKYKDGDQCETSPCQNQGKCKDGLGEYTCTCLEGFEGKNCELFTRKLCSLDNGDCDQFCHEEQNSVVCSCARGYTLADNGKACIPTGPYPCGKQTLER
Description: (§1) As synthetic substrates for examining the activity of inhibitor for inhibiting digestion of the substrates with enzyme, there were used PS-994 (H-D-Lys(Tos)-Phe-Lys-CHA.2HCl; manufactured by Nitto Boseki Co., Ltd.) for plasmin, PS-915 (H-D-Phe-Pro-Arg-CHA.2HCl; manufactured by Nitto Boseki Co., Ltd.) for thrombin and trypsin; PS-2000 (Z-D-Lys(HCO)-Gly-Arg-CHA.HCl; manufactured by Nitto Boseki Co., Ltd.) for factor Xa; S-2302 (H-D-Pro-Phe-Arg-pNA; manufactured by Kabi Co., Ltd.) for kallikrein; and [drawing 2] manufactured by Nitto Boseki Co., Ltd.) for urokinase.
(§2) As plasmin, thrombin, trypsin, factor Xa, kallikrein and urokinase, there were used 0.3 CU/ml of standard plasmin from Sankyo Color Test α2 -PI Measurement Kit, 1.2 NIH U/ml of thrombin from Sankyo Color Test AT-III Measurement Kit, 2 μg/ml of trypsin of Code 3703 of Worthington, 0.25 U/ml of human factor Xa manufactured by Boehringer Mannheim, 0.12 U/ml of human serum kallikrein manufactured by Kabi Co., Ltd. and 1000 U/ml of Urokinase 60000 (60,000 U/vial) manufactured by Mochida Pharmaceutical Co., Ltd., respectively. As a stopping (color forming) solution, there was used the one from the kit of Sankyo Color Test in the case of CHA type substrate. Enzyme reactions were carried out at 37° C.
To 0.3 ml of buffer solution (150 mM sodium chloride aqueous solution containing 50 mM Tris, pH 8.5) is added 0.1 ml of an aqueous solution of the inhibitor having various concentrations. After the mixture is heated for 5 minutes, 0.1 ml of factor Xa solution (150 mM sodium chloride aqueous solution containing 50 mM Tris and 20 mM calcium chloride, pH 8.5) is added thereto and the mixture is reacted for 5 minutes. Further 5% polyvinylpyrrolidone solution (0.1 ml) containing 10 mM PS-2000 is added followed by reaction for 5 minutes. Thereafter, 2 ml of the stopping color forming solution is added. After allowing to stand for 10 minutes, absorbance is measured at 700 nm and IC50 is determined according to the method described above.

[2] = molecular target: T2, urokinase (Homo sapiens, UniProt P00749); experiment: Inhibitory activity against urokinase (synthetic substrate MUK-34); settings: Table 3; substrate MUK-34, pH 8.20, 37° C.
T2 construct: purchased Mochida Pharmaceutical Co., Ltd. Urokinase 60000 (60,000 U/vial)
Description: as §1, §2
To 0.3 ml of buffer solution (150 mM sodium chloride aqueous solution containing 50 mM Tris, pH 8.20) is added 0.1 ml of an aqueous solution of the inhibitor having various concentrations. After the mixture is heated for 5 minutes, 0.1 ml of urokinase solution (150 mM sodium chloride aqueous solution containing 50 mM Tris and 0.1% BSA, pH 8.20) is added thereto and the mixture is reacted for 5 minutes. Then 10 mM MUK-34 aqueous solution (0.1 ml) is added to the mixture. After reacting for 5 minutes, 10% acetic acid aqueous solution (2.0 ml) is added to terminate the reaction. Absorbance is measured at 405 nm and IC50 is determined according to the method described above.

[3] = molecular target: plasmin (Homo sapiens, UniProt P00747); experiment: Inhibitory activity against plasmin (synthetic substrate PS-994); settings: Table 3; substrate PS-994, pH 7.8, 37° C.
plasmin, sequence (P00747 97-810): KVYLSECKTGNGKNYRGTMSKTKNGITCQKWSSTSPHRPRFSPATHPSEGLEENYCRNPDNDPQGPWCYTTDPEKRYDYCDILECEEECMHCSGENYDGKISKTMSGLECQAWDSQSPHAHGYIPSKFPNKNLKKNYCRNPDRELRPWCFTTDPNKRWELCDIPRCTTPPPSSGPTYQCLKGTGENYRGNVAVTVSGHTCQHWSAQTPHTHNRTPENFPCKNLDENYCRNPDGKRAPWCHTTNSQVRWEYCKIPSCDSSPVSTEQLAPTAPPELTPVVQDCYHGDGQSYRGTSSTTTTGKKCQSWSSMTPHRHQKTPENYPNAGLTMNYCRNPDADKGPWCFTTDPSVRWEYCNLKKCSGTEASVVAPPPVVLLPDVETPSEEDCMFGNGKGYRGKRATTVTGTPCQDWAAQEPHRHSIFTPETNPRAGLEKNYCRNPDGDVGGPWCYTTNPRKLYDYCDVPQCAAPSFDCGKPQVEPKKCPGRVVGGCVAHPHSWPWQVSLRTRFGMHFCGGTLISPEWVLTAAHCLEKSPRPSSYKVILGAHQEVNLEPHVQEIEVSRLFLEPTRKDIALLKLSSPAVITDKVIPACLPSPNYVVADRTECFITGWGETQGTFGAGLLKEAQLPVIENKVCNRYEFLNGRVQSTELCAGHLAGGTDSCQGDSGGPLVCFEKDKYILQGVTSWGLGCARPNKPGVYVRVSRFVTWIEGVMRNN
Procedure: As a stopping (color forming) solution, there was used the one from the kit of Sankyo Color Test in the case of CHA type substrate. Enzyme reactions were carried out at 37° C.
To 0.4 ml of buffer solution (150 mM sodium chloride aqueous solution containing 100 mM Tris, pH 7.8) is added an aqueous solution (0.1 ml) of the inhibitor having various concentrations. The mixture is heated for 5 minutes. After 0.2 ml of plasmin solution is added thereto, the mixture is reacted for 5 minutes. […] After completion of the reaction, 2.0 ml of the stopping color forming solution is added.

[4] = molecular target: T3, human serum kallikrein (Homo sapiens, UniProt P03952); experiment: Inhibitory activity against kallikrein (synthetic substrate S-2302); settings: substrate S-2302, pH 8.0, 37° C.
T3 construct: purchased Kabi Co., Ltd
T3 sequence (P03952 391-638 limits assumed): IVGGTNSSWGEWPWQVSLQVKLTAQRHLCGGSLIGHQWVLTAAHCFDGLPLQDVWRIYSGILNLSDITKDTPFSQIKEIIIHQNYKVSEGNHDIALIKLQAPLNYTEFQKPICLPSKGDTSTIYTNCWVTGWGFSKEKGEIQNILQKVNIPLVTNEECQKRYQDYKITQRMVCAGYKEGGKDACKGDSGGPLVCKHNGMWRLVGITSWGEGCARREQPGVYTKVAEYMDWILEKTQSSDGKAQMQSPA
T3 sequence (P03952 20-390 partner limits assumed): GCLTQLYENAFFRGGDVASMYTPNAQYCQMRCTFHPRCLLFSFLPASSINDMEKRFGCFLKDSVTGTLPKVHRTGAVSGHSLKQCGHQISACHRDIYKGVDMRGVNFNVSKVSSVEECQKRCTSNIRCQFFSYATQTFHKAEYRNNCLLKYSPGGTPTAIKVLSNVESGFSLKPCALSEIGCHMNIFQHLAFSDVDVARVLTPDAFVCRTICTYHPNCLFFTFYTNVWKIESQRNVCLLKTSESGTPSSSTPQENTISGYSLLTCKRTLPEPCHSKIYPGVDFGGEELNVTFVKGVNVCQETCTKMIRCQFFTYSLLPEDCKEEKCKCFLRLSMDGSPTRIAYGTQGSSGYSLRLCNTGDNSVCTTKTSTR
Description: as §1, §2
To 0.4 ml of buffer solution (150 mM sodium chloride aqueous solution containing 50 mM Tris, pH 8.0) is added 0.1 ml of an aqueous solution of the inhibitor. After the mixture is heated for 5 minutes, 0.1 ml of kallikrein solution (containing 0.5% bovine serum albumin, No. A-8022 manufactured by Sigma Co.) is added thereto followed by reaction for 5 minutes. Further 10 mM S-2302 aqueous solution (0.1 ml) is added thereto. After reacting for 5 minutes, 5 ml of 20% acetic acid aqueous solution is added to terminate the reaction. Absorbance is measured at 405 nm and IC50 is determined according to the method described above.

[5] = molecular target: thrombin (Bos taurus, UniProt P00735); experiment: Inhibitory activity against thrombin (synthetic substrate PS-915); settings: Table 3; substrate PS-915, pH 8.5, 37° C.
Description: as §1, §2
To 0.4 ml of buffer solution (150 mM sodium chloride aqueous solution containing 150 mM Tris, pH 8.5) is added an aqueous solution (0.1 ml) of the inhibitor having various concentrations. The mixture is heated for 5 minutes. After 0.2 ml of thrombin solution is added thereto, the mixture is reacted for 5 minutes. Then 0.1 ml of PS-915 solution (10 mM) is added followed by reaction for 5 minutes. Thereafter, 2 ml of the stopping color forming solution is added. After allowing to stand for 10 minutes, absorbance is measured at 700 nm and IC50 is determined according to the method described above.

[6] = molecular target: T4, trypsin (Bos taurus, UniProt P00760); experiment: Inhibitory activity against trypsin (synthetic substrate PS-915); settings: Table 3; substrate PS-915, pH 8.0, 37° C.
T4 construct: purchased Worthington Code 3703
T4 sequence (P00760 24-246): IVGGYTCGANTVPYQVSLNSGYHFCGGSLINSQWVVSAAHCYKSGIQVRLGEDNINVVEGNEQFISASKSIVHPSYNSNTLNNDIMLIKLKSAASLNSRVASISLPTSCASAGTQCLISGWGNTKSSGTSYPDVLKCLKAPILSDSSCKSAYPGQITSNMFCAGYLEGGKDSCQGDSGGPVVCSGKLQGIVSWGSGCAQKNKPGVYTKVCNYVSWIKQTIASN
Description: as §1, §2
To 0.5 ml of buffer solution (150 mM sodium chloride aqueous solution containing 150 mM Tris, pH 8.0) is added 0.1 ml of an aqueous solution of the inhibitor. After the mixture is heated for 5 minutes, 0.1 ml of trypin solution is added thereto. Further 0.1 ml of PS-915 solution (10 mM) is added followed by reaction for 5 minutes. Thereafter, 2 ml of the stopping color forming solution [containing 2.5 mg/ml of soybean trypsin inhibitor (manufactured by Sigma Co., No. T-9003)] is added. After allowing to stand for 10 minutes, absorbance is measured at 700 nm and IC50 is determined according to the method described above.

[7] = Table 3, read-out: IC50, kallikrein (Table 3)

| Molecule | pIC50 [1] | pIC50 [2] | pIC50 [3] | pIC50 [4, 7] | pIC50 [5] | pIC50 [6] | pIC50 ([4]; Table 2, read-out: IC50 of Known Compound, Kallikrein) |
| --- | --- | --- | --- | --- | --- | --- | --- |
| N-benzyloxycarbonyl-D-pyroglutamyl-L-leucyl-L-argininal hydrochloride [Example 7] | 5.33 | 4.52 | 5.55 | 5.51 | < 4.00 | 6.37 | – |
| N-benzyloxycarbonyl-L-pyroglutamyl-L-prolyl-L-argininal hydrochloride [Example 1] | 6.44 | 4.66 | 5.49 | 5.30 | 7.25 | 8.21 | – |
| N-benzyloxycarbonyl-L-pyroglutamyl-L-alanyl-L-argininal hydrochloride [Example 2] | 6.28 | 5.12 | 5.14 | 5.11 | 5.23 | 8.13 | – |
| N=C(N)NCCC[C@@H](C=O)NC(=O)[C@@H]1CCCN1C(=O)[C@@H]1CCC(=O)N1 [Example 13, L-pyroglutamyl-L-prolyl-L-argininal 1/2 sulfate] ([pGlu]-Pro-Arg-aldehyde) | 4.89 | 6.17 | 5.85 | 5.26 | 4.66 | 7.70 | – |
| CC(=O)N[C@@H](CC(C)C)C(=O)N[C@@H](CC(C)C)C(=O)N[C@H](C=O)CCCNC(=N)N [Example A1, acetyl-L-leucyl-L-leucyl-L-argininal, reference compound] | – | – | – | – | – | – | 5.16 |
| N-benzyloxycarbonyl-D-pyroglutamyl-L-phenylalanyl-L-argininal hydrochloride [Example 9] | 6.14 | 4.40 | 5.89 | 6.06 | < 4.00 | 6.00 | – |
| N-benzyloxycarbonyl-L-pyroglutamyl-L-phenylalanyl-L-argininal hydrochloride [Example 3] | 6.23 | 4.12 | 5.96 | 6.38 | 4.46 | 7.16 | – |
| N-benzyloxycarbonyl-D-pyroglutamyl-L-prolyl-L-argininal hydrochloride [Example 6] | 5.30 | 5.96 | 5.34 | 4.89 | 4.66 | 7.21 | – |
